Values quoted from earlier work as cited in patent publication US7189798B2, “Composition containing mixture of dihydroxybutane sulfonates” (Eastman Chemical Company, priority 2001, dated 2007).

Conditions: in vivo

Compound: OC[C@H]1O[C@@H]2O[C@H]3[C@H](O)[C@@H](O)[C@@H](O[C@H]4[C@H](O)[C@@H](O)[C@@H](O[C@H]5[C@H](O)[C@@H](O)[C@@H](O[C@H]6[C@H](O)[C@@H](O)[C@@H](O[C@H]7[C@H](O)[C@@H](O)[C@@H](O[C@H]8[C@H](O)[C@@H](O)[C@@H](O[C@H]1[C@H](O)[C@H]2O)O[C@@H]8CO)O[C@@H]7CO)O[C@@H]6CO)O[C@@H]5CO)O[C@@H]4CO)O[C@@H]3CO [β-CD, β-cyclodextrin]
- Renal and liver damage after parenteral administration: cause renal and liver damage
